From EP4772497A1, “POLYMORPHS OF NITROGEN-CONTAINING HETEROCYCLIC COMPOUNDS, AND USES THEREOF” (BNH Research Co., Ltd., priority 2023, dated 2025)

Key:
[1] = Parallel artificial membrane permeability assay (PAMPA) for BBB permeability; format: in vitro ADME
Procedure: • PAMPA: PMBBB-096 Kit • Assay format: 96-well plate • Reference substance: Imipramine (H) (10 µM) • Test substance concentration: 10 µM • Number of replicates: 3 • Reaction time: 6 hours at 25°C on a shaker (75 - 80 rpm) • Analytical method: LC-MS/MS • Data processing: Pe (cm/s)
The test compounds (crystalline forms A and C) were dissolved in DMSO at a concentration of 10 mM […] to prepare standard solutions. Next, dried brain lipids were resuspended in 600 µL dodecane to prepare a BBB lipid solution in dodecane. Pipetting up and down was repeated (~100 times) until all dried brain lipids were dissolved (vortexing or sonication may be helpful). A 10 µM reaction solution in PBS containing 5% DMSO was prepared.
The experiments were conducted in a 96-well plate using the prepared reaction solution of each test compound and the BBB lipid solution according to the following assay procedure. • 1. 500 µL of a 500 µM test compound solution (prepared by mixing 25 µL of a 10 mM test compound + 475 µL of PBS (pH 7.2) in DMSO) was prepared in a separate centrifuge tube. When a permeability control was used, it was diluted to 500 µM using PBS (prepared by mixing 25 µL of permeability control + 475 µL of PBS (pH 7.2)). • 2. For each test compound and control, a 200 µM equilibrium standard was prepared in a separate tube (by mixing 80 µL of 500 µM test compound or control with 120 µL of PBS (pH 7.2)). […] The absorbance spectrum from 200 nm to 500 nm was measured at 10 nm intervals to determine the peak absorbance of the test compounds. […] The peak absorbances of the high-permeability and low-permeability controls are 250 nm and 270 nm, respectively.
For the compounds and permeability controls, the permeability rate (Pe) was determined using the following equation: Pe = C × −ln(1−(ODA)/(ODE))cm/s [formula]
Here, ODA is the absorbance of the acceptor solution minus the blank, and ODE is the absorbance of the equilibrium standard minus the blank. For each absorbance value, the peak absorbance determined for each test was used. […]

[2] = system: APP/PS1 mice; experiment: fEPSP slope and LTP in hippocampal CA1 (Schaffer collateral) after dosing, ex vivo synaptic plasticity; conditions: APP/PS1 mice 15 months old, form C 1 mg/kg orally once daily about 11 to 13 days, aducanumab 5 mg/kg i.v., four weekly injections
Procedure: (§1) Using APP/PS1 mice (15 months old, Taconic Biosciences), an animal model of Alzheimer's disease, the efficacy of crystalline form C and aducanumab (Creative Biolabs) was evaluated when administered alone or in combination, respectively. A control group and four experimental groups were prepared as follows (see Table 14).
(§2) For the control antibody, an isotype antibody was administered intravenously, and for the vehicle, 200 µL of a mixed solution of DMSO (10):PEG400 (44):saline (55) was administered orally. Five mice were used for each treatment group.
(§3) Aducanumab was administered at a dose of 5 mg/kg, and the control antibody, which is an inactivated form of aducanumab, was administered at a dose of 5 mg/kg. For the intravenous administration, a total of four injections were administered into the tail vein on the starting day of the experiment and at one-week intervals thereafter.
(§4) For oral administration, 1 mg/kg of the compound of the present disclosure (crystalline form C, BnH-015B) or a vehicle was administered orally once daily for about 11 to 13 days, starting about 2 weeks after the initiation of the experiment.

[3] = system: Aβ plaques; experiment: Bielschowsky silver staining of brain sections; format: in vivo, mice; conditions: 1 mg/kg orally, cerebral cortex, vs vehicle control
Procedure: To evaluate the efficacy of crystalline form C of the present disclosure in inhibiting amyloid-beta protein accumulation, mouse proteomic profiling array analysis and Bielschowsky silver staining were performed. […]
Bielschowski silver staining (Bielschowski Silver Staining Kit, ab245877, abcam, Cambridge, UK) was performed according to the manufacturer's protocol. 40 µm-thick brain sections of APP/PS1 mice were incubated in a warm 20% silver nitrate solution at 40°C for 15 minutes, followed by four washes with distilled water and three rinses with water for 3 minutes each. The slides were incubated in an ammoniacal silver solution at 40°C for 10 minutes, and then placed in a developer solution (containing 8 drops of 20% formalin, 8 drops of citric acid, and 4 drops of nitric acid in 50 mL H2O) for a few seconds until the tissue sections turned yellow/brown. Subsequently, the slides were placed in aqueous ammonia for 30 seconds. The sections were washed three times with water for 2 minutes each and incubated in a 5% thiosulfate solution for 2 minutes. […]
Statistical analysis was performed using GraphPad Prism 9.5.0 software (San Diego, CA, USA). […] All data are expressed as mean ± SEM.

[4] = system: APP/PS1 mice; experiment: TC synaptic potency and GABA/AMPA ratio in the sensory cerebral cortex after dosing; format: in vivo; conditions: form C 1 mg/kg orally, aducanumab 5 mg/kg i.v.
Procedure: as §1, §2, §3, §4
Meanwhile, the efficacy of the compound against Alzheimer's disease was evaluated by measuring the potency and the GABA/AMPA ratio in the sensory cerebral cortex. […]

SMILES: C[C@@H]1CC[C@H](C(=O)O)CN1C(=O)Cc1ccc(F)cc1Cl [Crystalline form C, (3S,6R)-1-(2-(2-chloro-4-fluorophenyl)acetyl)-6-methylpiperidine-3-carboxylic acid]
- PAMPA Pe ([1]; BBB lipid membrane, PBS (pH 7.2)): 11.79 10^-9 cm/sec
- BBB permeability, comparison of forms ([1]; PAMPA): superior BBB permeability compared to crystalline form A
- long-term potentiation (LTP) of the fEPSP, excitatory SC pathway ([2]; hippocampus CA1): significantly increased
- slope of the field excitatory postsynaptic potential (fEPSP), synaptic efficacy ([2]; hippocampus CA1, 4 weeks): significantly increased
- Aβ plaques (percent area) [3]: reduced Aβ plaques
- balance of excitation/inhibition (GABA/AMPA ratio) [4]: maintaining the balance of excitation/inhibition
- excitatory TC synaptic potency (TC potency) [4]: increased excitatory TC synaptic potency
